Source: a melting point compilation (Tetko et al.; mined from patent text by program, amines drawn as free bases though some values may be those of a salt)

SMILES	melting point [°C]
CN1CCN(c2ccc(N/C=C3\C(=O)NC(=O)c4ccc(C#Cc5ccccc5)cc43)cc2)CC1	169 to 170
COc1ccc(Sc2ccccc2/C=C/C(=O)NCCCCO)cc1	134 to 136
COc1cc2oc(=O)c3c(c2cc1[N+](=O)[O-])CCN(CC(C)=O)C3	222 to 225
Cc1sc2c(c1C(=O)CCCCl)C(=O)NCCC2	113 to 115
CC1=NC2CN=C(c3ccccc3)c3cc(Cl)ccc3C2C(=O)N1 (stereo not drawn)	155 to 160
COc1ccc(N2CCN(c3c(C)c(C)c4c(c3C)C(OCc3ccccc3)C(C)(C)O4)CC2)cc1 (stereo not drawn)	98 to 99
COC(=O)CC(=O)Nc1cccc(COc2ccc(C(C)=O)c(F)c2)c1	102 to 104
CCOC(=O)C(c1c(F)cc(C#N)cc1F)c1cc(C)c(C(=O)c2ccc(Cl)cc2)n1C (stereo not drawn)	155 to 156
CC(=NO)c1ccc(N)c(C(=NO)c2ccccc2F)c1	165
Cc1c(F)cccc1NC(=O)c1ccc(CN2C(=O)C3(COc4cc5c(cc43)CCO5)c3ccccc32)cc1 (stereo not drawn)	143 to 144
COC(=O)c1ccc(C(=O)c2ccccc2)cc1	133 to 135
CCOC(=O)/C=C/c1ccc(C=Cc2nc(-c3ccccc3)oc2C)cc1	161 to 162
O=C(NCCO)c1cccc(-c2ccc3c(c2)C(Oc2ccc(Cl)cc2Cl)CCC3)c1 (stereo not drawn)	171 to 172
CC(=O)SC(Cc1ccc(F)cc1)C(=O)O (stereo not drawn)	44 to 46
CCCn1cc2c(C3C(=O)Nc4ccc(Br)cc43)nc(NCc3cccnc3)nc2n1 (stereo not drawn)	277 to 281
Cn1cc(C2=C(c3c4n(c5ccccc35)CCC(COS(C)(=O)=O)C4)C(=O)NC2=O)c2ccccc21 (stereo not drawn)	259 to 261
CC(C)(C)OC(=O)NCCCCCCO	36 to 37
CCC(Cl)c1nc2c(C(F)(F)F)cccc2c(=O)o1 (stereo not drawn)	65 to 70
O=C(c1ccccc1)N1CCC(Cc2ccccc2)(C(=O)O)CC1	183 to 189
COC(=O)N(C)NC(=O)Oc1ccccc1	86
COc1ccc(N2CCN(c3c(C)c(C)c4c(c3C)C(O)(c3ccoc3)C(C)(C)O4)CC2)cc1 (stereo not drawn)	148 to 149
COc1ccc(-n2[nH]c(Cc3c(C)n(C(=O)c4ccc(Cl)cc4)c4ccc(OC)cc34)cc2=O)cc1	101 to 103
Cc1cccc(C)c1CNc1cc(C(=O)NN)cc2c1nc(C)n2C	277 to 278
O=S1(=O)c2cccc3cccc(c23)N1CCCN1CCN(c2ccc(Cl)cc2)CC1	120
O=C1NNC(C=Cc2ccc([N+](=O)[O-])cc2)CS1 (stereo not drawn)	231 to 240
OCc1cc2cc(Cl)cc(Br)c2o1	123 to 126

SMILES	melting point [°C]
COc1ccc(-c2ccc3c(c2)C=C(C(=O)Nc2ccc(CN(C)C4CCC5(CC4)OCCO5)cc2)CCS3)cc1	198 to 201
Nc1c(C(=O)Cc2ccccc2)[nH]c2cc(Cl)ccc12	204 to 205
CCN(CC)C(=O)CCS(=O)c1cc(-c2ccccc2)nc2ccccc12 (stereo not drawn)	130
CCOCc1cc(COc2cc(CC)nc(C)c2OC)ccc1-c1ccccc1S(=O)(=O)Nc1noc(C)c1C	64 to 72
CN(CCCCCCCCC(=O)O)c1cnc(-c2ccccc2)c(-c2ccccc2)n1	103 to 105
O=C(N[C@H]1CC[C@H](CCN2CCN(c3nccc4c3OCC4)CC2)CC1)c1ccnc2ccccc12	222
CCOc1cc2c(Nc3cc(OC)c(Cl)cc3Cl)c(C#N)cnc2cc1OCCCN1CCN(CC)CC1	127 to 130
Cc1coc(C)c1N(C)c1cc(C(=O)N(C)C)cc2c1nc(C)n2C	163 to 164
CC(=O)c1ccc(OCCCOc2cc([N+](=O)[O-])c(C)cc2Br)c(CCC(F)(F)F)c1O	106 to 109
CC(C)(C(Cl)c1ccc2c(c1)OCO2)[N+](=O)[O-] (stereo not drawn)	63 to 66
CNC(=NC#N)NCCSCc1ccc(CN)o1	80 to 82
CCC(OCC1CC1)c1ccc(Cl)c2nc3n(c12)CCCN3c1ccc(Cl)cc1Cl (stereo not drawn)	159 to 160
COC(=O)[C@@]1(C)Oc2ccccc2N(C)C1=O	76 to 78
O=C(O)Cc1ccccc1OCCCCc1cc(-c2ccc(C(F)(F)F)cc2)no1	122 to 123
O=C(O)CCCCCOc1ccc2sc(-c3ccccn3)nc(=O)c2c1	205 to 206
Clc1ccc(NN=Cc2cccnc2)cc1	186
CCCCCCCCC1(CCCCCCCC)c2cc([N+](=O)[O-])ccc2-c2ccc([N+](=O)[O-])cc21	69 to 73
O=C(O)CN1C(=O)C(=Cc2ccccc2)SC1=S	254 to 256
CN(C)CCCNC(=O)N1CCN(c2ccccc2)CC1	91 to 95
COc1nc(C)nc(NN)c1Cl	153 to 154
Cc1[nH]c(-c2ccccc2)nc1C(C)O (stereo not drawn)	189 to 190
C=CC(CC(O)C(CC(C)C)NC(=O)C(Cc1c[nH]cn1)NC(=O)C(Cc1ccccc1)Cc1ccccc1)C(C)C (stereo not drawn)	120
COc1cc(NC(=O)C#Cc2ccc(C(F)(F)F)cc2Cl)ccc1OCCN1CC(C)CC(C)C1 (stereo not drawn)	196 to 201
O=C1CNC(c2cccc(Cl)c2)=NN1	228 to 230
O=C(O)COc1c(F)cc(SCCNS(=O)(=O)c2ccccc2)cc1F	91 to 93
CCOC(=O)c1ccc(OCc2cnccn2)cc1	76.1

SMILES	melting point [°C]
NS(=O)(=O)NC(=O)CCCCCC1CCSS1 (stereo not drawn)	130 to 132
Cc1ccc(C(=O)Cn2cncn2)cc1	118
N#Cc1ccc(CCC2CCC(=O)CC2)cc1	62.5 to 64.3
CN(C/C=C\c1ccc(Cl)cc1)Cc1cccc2ccccc12	41 to 42
CCCCn1c(=O)c2c(ncn2S(=O)(=O)c2cc(C)c(Cl)cc2C)n(CCCC)c1=O	138 to 140
CCCCCCCCCCCCCCOc1ccccc1O	53 to 54
COc1ccc(COCC(O)Cn2ccnc2)cc1 (stereo not drawn)	96 to 98
N=C(N)NOCc1ccccc1	104 to 105
CC1(n2cc(C(=O)O)c(=O)c3cc(F)c(N4CCC(N)C4)c(F)c32)CC1 (stereo not drawn)	> 300
CCOC(=O)C(C(=O)Nc1ccc(C)cc1)(c1ccccc1)c1ccccc1	88 to 90
CC1(C)Oc2ccc(C#N)cc2[C@H](N(Cc2ccco2)c2ncco2)[C@H]1O	63
CN1C(=O)NC2(CCN(C(=O)OC(C)(C)C)CC2)C1=O	206 to 208
[N-]=[N+]=NS(=O)(=O)c1cccc(C(=O)Cl)c1	41
Cc1nc2cc(NC(=O)c3cc4cccnc4n3Cc3cccc(F)c3)ccc2n1C	242 to 244
O=C(CCl)N1CCC(Cc2ccc(F)cc2)CC1	85 to 87
CCOC(=O)CS(=O)(=O)C=C1SC=CS1	134 to 136
COC(=O)c1ccc(-c2nnc(-c3ccc(C(C)C)cc3)s2)cc1	147 to 151
O=C1C=C(Br)C(=CBr)O1	97 to 98
CN(C)c1cccc(C(=O)N2CCC3(CC2)CSC2=C(O3)c3ccccc3C(=O)C2=O)c1	170 to 172
COc1ccc2c(Cl)c(C(=O)Cl)sc2c1Cl	174 to 175
FC(F)(F)c1cc(Cl)c2nc(CCl)cn2c1	75 to 77
CC1C(=CO)C(=O)c2c(O)cc(OCCCCc3ccccc3)cc2N1C=O (stereo not drawn)	101 to 103
Cc1noc(NS(=O)(=O)c2ccccc2-c2ccccc2)c1Cl	132 to 134
CC(=O)ON1C(C)(C)CC(OC(=O)NCCCCCCNC(=O)OC2CC(C)(C)N(OC(C)=O)C(C)(C)C2)CC1(C)C	158 to 163
CC1(C)CC(=C(c2ccc(O)cc2)c2ccc(F)cc2)CC(C)(C)C1	134 to 135
CCN(CC)c1nc(C(F)(F)C(F)(F)F)nn1-c1c(Cl)cc(Cl)cc1Cl	66 to 70

SMILES	melting point [°C]
Nc1ncc2c(n1)-c1ccc(Cl)cc1C(c1ccccc1Cl)=NC2	240 to 241
CCOC(=O)C(C)(C)CCCCOc1cc(C)c(N=Nc2ccc([N+](=O)[O-])cc2)c(C)c1	89 to 90
COc1ccc(-n2c(-c3cc(-c4ccccc4)c(N4CCOCC4)s3)nc3ccccc3c2=O)cc1	164 to 165
Cc1ccc(-c2[nH]c(-c3c(Cl)cccc3Cl)nc2-c2ccncc2)cc1	295 to 296
C=C(C)C1CCC(C)(C(=O)O)C1=C (stereo not drawn)	66.5 to 68
CC(C)(C)C1=CC(=Nc2ccc(C(=O)O)cc2)C=C(C(C)(C)C)C1=O	305 to 309
O=c1[nH]c2cc(Cl)ccc2c(O)c1-c1ccccc1Oc1ccccc1	284 to 288
Cn1ncnc1-c1ccc(C(=O)N2Cc3cccn3Cc3ccccc32)cc1	155 to 158
CCCn1nc2c(N)nc3cnccc3c2c1CCNC(=O)c1ccc(F)cc1	317 to 318
Cc1ccccc1C(NCC(=O)Nc1c(C(C)C)cccc1C(C)C)c1ccccc1 (stereo not drawn)	163 to 164
CNS(=O)(=O)c1cccc(S(N)(=O)=O)c1	125 to 128
CCC(CC)c1ccc(Cl)c2nc(Cl)n(C)c12	94 to 95
CCOC(=O)c1snc(-c2ccccc2)c1C(=O)OCC	70 to 71.5
CC(C)[C@H](NC(=O)Oc1ccccc1)C(=O)O	84.5 to 85.5
COc1ccccc1-c1ccc2ccc(N)nc2n1	182
O=[N+]([O-])c1cc(NCCO)ccc1NCC(F)(F)F	93 to 95
N#CN=c1ncccn1Cc1ccc(Cl)nc1	218 to 220
CCCCOC(=O)[C@H]1CN(c2ccc(C3CCSCC3)c(F)c2)C(=O)O1	98 to 100
Cn1nc(C(=O)O)c(=O)n(C)c1=O	220 to 223
CCCC1CCCCCc2c1oc(=O)c(C(c1ccccc1)C1CC1)c2O (stereo not drawn)	78 to 84
CCC(=O)CSc1cc(C(C)(C)C)c(O)c(C(C)(C)C)c1	55 to 57
COc1cc(SC)ccc1O	47 to 49
O=C(O)CCCc1oc(Cl)nc1-c1ccc(Cl)cc1	150 to 151
O=S1(=O)N=CN(C2CC2)c2cccc(Cl)c21	207 to 209
CC(=O)C1CCC2C3CCC4CC(O)C(N5CC(C)OC(C)C5)CC4(C)C3C(=O)CC12C (stereo not drawn)	172 to 174
